Measured values taken from ChEMBL document CHEMBL5214926, “Recent contribution of medicinally active 2-aminothiophenes: A privileged scaffold for drug discovery” (Eur J Med Chem, 2022).
In brackets after ≈: the same amount, converted by molar mass.

What was measured:
[1] = tested on: Leishmania amazonensis; assay: Anti-promastigote activity against Leishmania amazonensis (IFLA/BR/67/PH8) assessed as promastigote growth inhibition incubated for 72 hrs by microscopic analysis; assay type: functional, organism-based; settings: Leishmania amazonensis, IFLA/BR/67/PH8, 72 h
[2] = Inhibition of CaCC (unknown origin) current potentiation; set-up: species or system Homo sapiens
[3] = tested on: PC-3; assay: Cytotoxicity against human PC-3 cells assessed as cell growth inhibition incubated for 2 days by MTT assay; assay type: functional, cell-based; settings: PC-3, 48 h
[4] = tested on: HepG2; assay: Cytotoxicity against human HepG2 cells assessed as cell growth inhibition incubated for 2 days by MTT assay; assay type: functional, cell-based; settings: HepG2, 48 h
[5] = tested on: MCF7; assay: Cytotoxicity against human MCF7 cells assessed as cell growth inhibition incubated for 2 days by MTT assay; assay type: functional, cell-based; settings: MCF7, 48 h
[6] = Antiproliferative activity against human U-87 MG cells assessed as cell growth inhibition by MTT assay; assay type: functional, cell-based, U-87MG ATCC
[7] = tested on: NCI-H460; assay: Antiproliferative activity against human NCI-H460 cells assessed as cell growth inhibition by MTT assay
[8] = tested on: MKN-45; assay: Antiproliferative activity against human MKN-45 cells assessed as cell growth inhibition by MTT assay
[9] = tested on: SMMC-7721; assay: Antiproliferative activity against human SMMC-7721 cells assessed as cell growth inhibition by MTT assay
[10] = tested on: A549; assay: cells; settings: Homo sapiens
Description: Antiproliferative activity against human A549 cells assessed as cell growth inhibition by MTT assay

[11] = tested on: HT-29; assay: cells; settings: Homo sapiens
Description: Antiproliferative activity against human HT-29 cells assessed as cell growth inhibition by MTT assay

[12] = tested on: Staphylococcus aureus; assay: Antibacterial activity against Staphylococcus aureus NCIM 2010 assessed as bacterial growth inhibition incubated for 8 hrs by absorbance based assay; assay type: functional
[13] = tested on: Bacillus subtilis; assay: Antibacterial activity against Bacillus subtilis NCIM 2079 assessed as bacterial growth inhibition incubated for 8 hrs by absorbance based assay; assay type: functional
[14] = tested on: Escherichia coli; assay: Antibacterial activity against Escherichia coli NCIM 2688 assessed as bacterial growth inhibition incubated for 8 hrs by absorbance based assay; assay type: functional
[15] = tested on: Pseudomonas aeruginosa; assay: Antibacterial activity against Pseudomonas aeruginosa NCIM 2036 assessed as bacterial growth inhibition incubated for 8 hrs by absorbance based assay; assay type: functional
[16] = tested on: Staphylococcus aureus; assay: Antibacterial activity against Staphylococcus aureus NCIM 2010 assessed as reduction in bacterial growth incubated for 8 hrs by absorbance based assay; assay type: functional, organism-based; settings: NCIM 2010, 8 h
[17] = tested on: Bacillus subtilis; assay: Antibacterial activity against Bacillus subtilis NCIM 2079 assessed as reduction in bacterial growth incubated for 8 hrs by absorbance based assay; assay type: functional, organism-based; settings: NCIM 2079, 8 h
[18] = tested on: Mycobacterium tuberculosis; assay: Antimycobacterial activity against Mycobacterium tuberculosis H37Ra incubated for 8 to 12 days by XTT reduction menadione assay; assay type: functional; settings: time 8-12 day
[19] = tested on: NCI-H1299; assay: Cytotoxicity against human NCI-H1299 cells assessed as cell growth inhibition incubated for 48 hrs by SRB assay; assay type: functional, cell-based; settings: NCI-H1299, 48 h
[20] = tested on: HepG2; assay: Cytotoxicity against human HepG2 cells assessed as cell growth inhibition incubated for 48 hrs by MTT assay; assay type: functional, cell-based
[21] = tested on: MCF7; assay: Cytotoxicity against human MCF7 cells assessed as cell growth inhibition incubated for 48 hrs by MTT assay; assay type: functional, cell-based; settings: MCF7, 48 h
[22] = tested on: Epidermophyton floccosum; assay: Antifungal activity against Epidermophyton floccosum 6999 assessed as fungal growth inhibition by spectrophotometry; assay type: functional
[23] = tested on: Trichophyton rubrum; assay: Antifungal activity against Trichophyton rubrum 6753 assessed as fungal growth inhibition by spectrophotometry; assay type: functional

Question: For `COc1ccc2nc3cc(Cl)ccc3c(Nc3sc4c(c3C(N)=O)CCCC4)c2c1`, which EC50 [1] is on record?
Answer: 31.8 µM

Question: For `CC(C)(C)C1CCc2c(sc(NC(=O)C3CCCO3)c2C(=O)O)C1` (configuration not stated), which IC50 [2] is on record?
Answer: 1700 nM

Question: For `N#Cc1c(NC(=O)/C=C/c2ccc(O)cc2)sc2c1CCCC2`, which IC50 [3] is on record?
Answer: 5.2 µM

Question: What about the IC50 [4] of the same compound?
Answer: 7.9 µM

Question: What about the IC50 [5] of the same compound?
Answer: 7.5 µM

Question: For `CCOC(=O)c1c(NC(=O)CC#N)sc(C(=O)Nc2ccccc2)c1-c1ccccc1`, which IC50 [6] is on record?
Answer: 620 nM

Question: And the IC50 [7]?
Answer: 490 nM

Question: And the IC50 [8]?
Answer: 590 nM

Question: What about the IC50 [9] of the same compound?
Answer: 530 nM

Question: What about the IC50 [10] of the same compound?
Answer: 320 nM

Question: What about the IC50 [11] of the same compound?
Answer: 630 nM

Question: Which MIC [12] does the source give for `CC1=C(C(=O)O)N2C(=O)[C@@H](NC(=O)[C@H](N)c3ccccc3)[C@H]2SC1` [CEPHALEXIN ANHYDROUS] here?
Answer: 2.39 µg/mL (≈ 6.88 µM)

Question: And the MIC [13]?
Answer: 1.87 µg/mL (≈ 5.38 µM)

Question: What about the MIC [14] of the same compound?
Answer: 4.94 µg/mL (≈ 14.2 µM)

Question: What about the MIC [15] of the same compound?
Answer: > 10 µg/mL

Question: What about the EC50 [16] of the same compound?
Answer: 770 nM

Question: What about the EC50 [17] of the same compound?
Answer: 250 nM

Question: For `CC1(C)S[C@@H]2[C@H](NC(=O)[C@H](N)c3ccc(O)cc3)C(=O)N2[C@H]1C(=O)O` [AMOXICILLIN], which MIC [12] is on record?
Answer: 0.29 µg/mL (≈ 0.794 µM)

Question: What about the MIC [13] of the same compound?
Answer: 0.32 µg/mL (≈ 0.876 µM)

Question: And the MIC [14]?
Answer: 0.32 µg/mL (≈ 0.876 µM)

Question: And the MIC [15]?
Answer: > 10 µg/mL

Question: What about the EC50 [16] of the same compound?
Answer: 150 nM

Question: What about the EC50 [17] of the same compound?
Answer: 150 nM

Question: Which IC50 [6] does the source give for `COc1cc2c(Oc3ccc(NC(=O)C4(C(=O)Nc5ccc(F)cc5)CC4)cc3F)ccnc2cc1OCCCN1CCOCC1` [FORETINIB] here?
Answer: 900 nM

Question: For `N#Cc1c(N)sc(C(=O)Nc2ccccc2)c1-c1ccccc1`, which IC50 [6] is on record?
Answer: 8930 nM

Question: And the IC50 [7]?
Answer: 9620 nM

Question: What about the IC50 [8] of the same compound?
Answer: 7090 nM

Question: And the IC50 [9]?
Answer: 5090 nM

Question: And the IC50 [10]?
Answer: 8280 nM

Question: What about the IC50 [11] of the same compound?
Answer: 8390 nM

Question: For `COC(=O)c1c(NC(=O)N[C@@H](C(=O)N[C@@H]2C(=O)N3[C@@H]2SC(C)(C)[C@@H]3C(=O)O)c2ccccc2)sc2c1CCCCCC2`, which MIC [12] is on record?
Answer: 0.28 µg/mL (≈ 0.455 µM)

Question: And the MIC [13]?
Answer: 2.3 µg/mL (≈ 3.74 µM)

Question: What about the MIC [14] of the same compound?
Answer: > 10 µg/mL

Question: And the MIC [15]?
Answer: > 10 µg/mL

Question: What about the MIC [18] of the same compound?
Answer: 23.3 µg/mL (≈ 37.8 µM)

Question: And the EC50 [16]?
Answer: 150 nM

Question: What about the EC50 [17] of the same compound?
Answer: 280 nM

Question: What does the source list for `N#CCC(=O)Nc1sc(C(=O)Nc2ccc(Cl)cc2)c(-c2ccccc2)c1C#N`?
Answer: IC50 [6]: 860 nM; IC50 [7]: 1040 nM; IC50 [8]: 590 nM; IC50 [9]: 390 nM; IC50 [10]: 1400 nM; IC50 [11]: 860 nM

Question: With `CCOC(=O)c1c(NC(=O)/C=C/c2ccc(O)cc2)sc2c1CCCC2` as the compound, how does the IC50 [3] read?
Answer: 6.29 µM

Question: What about the IC50 [4] of the same compound?
Answer: 8.3 µM

Question: And the IC50 [5]?
Answer: 8.27 µM

Question: With `Cc1cc(C)c2c(NCC(=O)Nc3sc4c(c3C#N)CCCC4)n[nH]c2n1` as the compound, how does the IC50 [19] read?
Answer: 13.7 µM

Question: With `N#Cc1c(/N=C/c2c3ccccc3nc3ccccc23)sc2c1CCC2` as the compound, how does the EC50 [1] read?
Answer: > 500 µM

Question: With `N#Cc1c(NC(=O)CNc2onc3ncccc23)sc2c1CCCC2` as the compound, how does the IC50 [19] read?
Answer: 18.4 µM

Question: Which IC50 [6] does the source give for `CCOC(=O)c1c(NC(=O)CC#N)sc(C(=O)Nc2ccc(Cl)cc2)c1-c1ccccc1` here?
Answer: 430 nM

Question: And the IC50 [7]?
Answer: 430 nM

Question: What about the IC50 [8] of the same compound?
Answer: 390 nM

Question: And the IC50 [9]?
Answer: 730 nM

Question: And the IC50 [10]?
Answer: 600 nM

Question: What about the IC50 [11] of the same compound?
Answer: 620 nM

Question: What does the source list for `COC(=O)c1ccsc1NC(=O)N[C@@H](C(=O)N[C@@H]1C(=O)N2[C@@H]1SC(C)(C)[C@@H]2C(=O)O)c1ccccc1`?
Answer: MIC [12]: 0.28 µg/mL (≈ 0.526 µM); MIC [13]: 0.55 µg/mL (≈ 1.03 µM); MIC [14]: > 10 µg/mL; MIC [15]: > 10 µg/mL; MIC [18]: > 50 µg/mL; EC50 [16]: 160 nM; EC50 [17]: 210 nM

Question: For `CC(=O)c1ccc(Nc2c(C(C)=O)sc(NC(=O)CC#N)c2C#N)cc1`, which IC50 ([20]; Homo sapiens, HepG2, 48 h) is on record?
Answer: 56.1 µM

Question: What about the IC50 [21] of the same compound?
Answer: 41.4 µM

Question: For `COc1ccc2nc3cc(Cl)ccc3c(Nc3sc4c(c3C#N)CCCCCC4)c2c1`, which EC50 [1] is on record?
Answer: 69 µM

Question: With `CC(=O)c1ccc(Nc2c(C(=O)/C=C/c3ccccc3)sc(/N=C/c3ccccc3)c2C#N)cc1` as the compound, how does the IC50 ([20]; Homo sapiens, HepG2, 48 h) read?
Answer: 19.1 µM

Question: What about the IC50 ([20]; hepg2) of the same compound?
Answer: 26.2 µM

Question: And the IC50 [21]?
Answer: 19.1 µM

Question: With `N#Cc1c(N)sc(C(=O)Nc2ccc(Cl)cc2)c1-c1ccccc1` as the compound, how does the IC50 [6] read?
Answer: 590 nM

Question: What about the IC50 [7] of the same compound?
Answer: 760 nM

Question: What about the IC50 [8] of the same compound?
Answer: 420 nM

Question: And the IC50 [9]?
Answer: 690 nM

Question: What about the IC50 [10] of the same compound?
Answer: 700 nM

Question: And the IC50 [11]?
Answer: 650 nM

Question: With `N#Cc1c(NC(=O)CNc2n[nH]c3ncccc23)sc2c1CCCC2` as the compound, how does the IC50 [19] read?
Answer: 0.0125 µM

Question: Which MIC [22] does the source give for `N#Cc1ccsc1/N=C/c1cccc([N+](=O)[O-])c1` here?
Answer: 64 µg/mL (≈ 249 µM)

Question: What about the MIC [23] of the same compound?
Answer: 128 µg/mL (≈ 498 µM)
